Columns and labels:
[1] = biological target: 5-hydroxytryptamine receptor 7 (Homo sapiens, UniProt P34969); experiment: GPCRScan assay: inhibition of 5-HT7A; set-up: radioligand conc. used [nm] 5.0 – 6.0, parental cells Stable HEK
[2] = biological target: AP2-associated protein kinase 1 (Homo sapiens) (UniProt Q2M2I8); settings: Compound concentration 1000.0 nM
[3] = test system: Tyrosine-protein kinase ABL1 (Homo sapiens), P00519 [F317I]; settings: Compound concentration 1000.0 nM
[4] = test system: Tyrosine-protein kinase ABL1 (Homo sapiens), P00519 [H396P]; settings: Compound concentration 1000.0 nM
[5] = biological target: Tyrosine-protein kinase ABL1 (Homo sapiens) (UniProt P00519); settings: Compound concentration 1000.0 nM
[6] = test system: ALK tyrosine kinase receptor (Homo sapiens), Q9UM73 [L1196M]; settings: Compound concentration 1000.0 nM
Chain of ALK tyrosine kinase receptor (Homo sapiens), Q9UM73 [L1196M] (Q9UM73 whole entry L1196M, looked up): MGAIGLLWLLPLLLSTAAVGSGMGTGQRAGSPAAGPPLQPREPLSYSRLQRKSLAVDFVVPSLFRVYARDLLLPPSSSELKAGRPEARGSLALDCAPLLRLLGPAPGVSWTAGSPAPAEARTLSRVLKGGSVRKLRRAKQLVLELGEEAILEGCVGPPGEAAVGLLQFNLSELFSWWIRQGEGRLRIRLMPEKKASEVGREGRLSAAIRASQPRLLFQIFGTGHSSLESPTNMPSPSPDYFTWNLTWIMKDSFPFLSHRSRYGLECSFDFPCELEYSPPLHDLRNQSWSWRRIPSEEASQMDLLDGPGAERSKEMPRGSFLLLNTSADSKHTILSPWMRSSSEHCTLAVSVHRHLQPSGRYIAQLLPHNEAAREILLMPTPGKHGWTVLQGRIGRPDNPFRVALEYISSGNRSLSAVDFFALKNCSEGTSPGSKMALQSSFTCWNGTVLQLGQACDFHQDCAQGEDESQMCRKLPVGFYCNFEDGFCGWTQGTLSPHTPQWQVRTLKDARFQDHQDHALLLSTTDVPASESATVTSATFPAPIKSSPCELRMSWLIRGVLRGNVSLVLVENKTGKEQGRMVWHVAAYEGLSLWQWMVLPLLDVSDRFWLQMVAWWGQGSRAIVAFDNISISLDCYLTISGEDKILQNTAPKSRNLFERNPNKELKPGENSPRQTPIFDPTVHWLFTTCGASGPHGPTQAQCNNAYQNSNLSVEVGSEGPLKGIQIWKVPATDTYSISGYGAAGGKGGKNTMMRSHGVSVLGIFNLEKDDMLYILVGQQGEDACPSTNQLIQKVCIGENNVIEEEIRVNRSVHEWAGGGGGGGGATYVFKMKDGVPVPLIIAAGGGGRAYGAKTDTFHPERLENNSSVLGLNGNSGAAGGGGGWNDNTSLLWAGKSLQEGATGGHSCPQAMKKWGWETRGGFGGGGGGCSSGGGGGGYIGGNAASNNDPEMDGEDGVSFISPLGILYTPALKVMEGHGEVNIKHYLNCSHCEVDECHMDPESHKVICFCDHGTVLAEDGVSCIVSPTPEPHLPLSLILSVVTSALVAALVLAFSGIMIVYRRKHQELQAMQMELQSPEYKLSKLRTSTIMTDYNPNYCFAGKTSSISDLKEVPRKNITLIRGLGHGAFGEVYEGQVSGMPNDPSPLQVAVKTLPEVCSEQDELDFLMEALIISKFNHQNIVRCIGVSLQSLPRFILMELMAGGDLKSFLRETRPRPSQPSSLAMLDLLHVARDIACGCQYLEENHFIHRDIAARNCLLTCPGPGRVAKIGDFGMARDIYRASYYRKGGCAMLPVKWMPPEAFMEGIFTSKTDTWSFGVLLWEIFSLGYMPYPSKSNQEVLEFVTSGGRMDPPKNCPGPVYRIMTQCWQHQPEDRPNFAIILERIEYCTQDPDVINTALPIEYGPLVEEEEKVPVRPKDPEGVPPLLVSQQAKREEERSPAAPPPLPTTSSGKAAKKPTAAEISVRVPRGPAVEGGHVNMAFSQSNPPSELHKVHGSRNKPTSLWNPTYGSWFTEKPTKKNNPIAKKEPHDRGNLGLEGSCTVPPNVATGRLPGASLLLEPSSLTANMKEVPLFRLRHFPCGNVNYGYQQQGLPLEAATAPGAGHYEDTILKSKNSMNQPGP

[7] = biological target: BMP-2-inducible protein kinase (Homo sapiens) (UniProt Q9NSY1); settings: Compound concentration 1000.0 nM
[8] = biological target: Mitotic checkpoint serine/threonine-protein kinase BUB1 (Homo sapiens) (UniProt O43683); settings: Compound concentration 1000.0 nM
[9] = biological target: Calcium/calmodulin-dependent protein kinase kinase 2 (Homo sapiens) (UniProt Q96RR4); settings: Compound concentration 1000.0 nM
[10] = biological target: Macrophage colony-stimulating factor 1 receptor (Homo sapiens) (UniProt P07333); settings: Compound concentration 1000.0 nM
[11] = biological target: Casein kinase I isoform gamma-1 (Homo sapiens) (UniProt Q9HCP0); settings: Compound concentration 1000.0 nM
Chain of Casein kinase I isoform gamma-1 (Homo sapiens) (Q9HCP0 whole entry, looked up, canonical isoform): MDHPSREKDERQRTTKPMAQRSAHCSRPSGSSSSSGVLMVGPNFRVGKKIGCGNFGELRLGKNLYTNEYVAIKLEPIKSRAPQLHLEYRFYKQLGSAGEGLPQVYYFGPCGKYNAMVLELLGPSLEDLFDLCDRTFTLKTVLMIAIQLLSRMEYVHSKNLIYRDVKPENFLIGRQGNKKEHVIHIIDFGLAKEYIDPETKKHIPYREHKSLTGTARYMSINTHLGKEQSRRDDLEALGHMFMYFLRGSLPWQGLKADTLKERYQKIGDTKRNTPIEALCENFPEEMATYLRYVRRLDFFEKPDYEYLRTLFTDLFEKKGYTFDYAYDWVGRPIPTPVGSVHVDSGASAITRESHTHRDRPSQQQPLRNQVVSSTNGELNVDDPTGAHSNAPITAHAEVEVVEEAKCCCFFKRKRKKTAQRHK

[12] = biological target: Death-associated protein kinase 1 (Homo sapiens) (UniProt P53355); settings: Compound concentration 1000.0 nM
[13] = biological target: Death-associated protein kinase 2 (Homo sapiens) (UniProt Q9UIK4); settings: Compound concentration 1000.0 nM
[14] = test system: Epidermal growth factor receptor (Homo sapiens), P00533 [UNDEFINED MUTATION]; settings: Compound concentration 1000.0 nM
[15] = test system: Epidermal growth factor receptor (Homo sapiens), P00533 [L858R]; settings: Compound concentration 1000.0 nM
[16] = test system: Receptor-type tyrosine-protein kinase FLT3 (Homo sapiens), P36888 [N841I]; settings: Compound concentration 1000.0 nM
[17] = biological target: Tyrosine-protein kinase FRK (Homo sapiens) (UniProt P42685); settings: Compound concentration 1000.0 nM
[18] = biological target: G protein-coupled receptor kinase 3 (Homo sapiens) (UniProt P35626); settings: Compound concentration 1000.0 nM
[19] = biological target: Inhibitor of nuclear factor kappa-B kinase subunit alpha (Homo sapiens) (UniProt O15111); settings: Compound concentration 1000.0 nM
[20] = biological target: Tyrosine-protein kinase JAK3 (Homo sapiens) (UniProt P52333); settings: Compound concentration 1000.0 nM
[21] = biological target: Tyrosine-protein kinase Lck (Homo sapiens) (UniProt P06239); settings: Compound concentration 1000.0 nM
[22] = biological target: Tyrosine-protein kinase Lyn (Homo sapiens) (UniProt P07948); settings: Compound concentration 1000.0 nM
Chain of Tyrosine-protein kinase Lyn (Homo sapiens) (P07948 2-512 limits assumed): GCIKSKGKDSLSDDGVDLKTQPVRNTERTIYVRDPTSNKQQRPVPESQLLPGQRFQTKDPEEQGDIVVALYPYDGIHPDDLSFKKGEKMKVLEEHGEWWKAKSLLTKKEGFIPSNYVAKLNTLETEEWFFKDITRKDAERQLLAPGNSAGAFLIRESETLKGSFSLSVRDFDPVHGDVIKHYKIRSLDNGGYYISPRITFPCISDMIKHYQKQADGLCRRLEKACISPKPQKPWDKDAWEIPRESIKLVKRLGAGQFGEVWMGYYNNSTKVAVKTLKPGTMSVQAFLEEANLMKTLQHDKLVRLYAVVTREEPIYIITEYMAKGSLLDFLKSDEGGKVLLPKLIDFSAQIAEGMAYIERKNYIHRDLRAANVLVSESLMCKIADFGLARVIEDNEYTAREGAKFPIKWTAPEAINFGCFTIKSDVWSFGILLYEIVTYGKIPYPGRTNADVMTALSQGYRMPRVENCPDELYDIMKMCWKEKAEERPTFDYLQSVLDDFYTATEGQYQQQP

[23] = biological target: Mitogen-activated protein kinase kinase kinase 1 (Homo sapiens) (UniProt Q13233); settings: Compound concentration 1000.0 nM
[24] = biological target: Mitogen-activated protein kinase kinase kinase 3 (Homo sapiens) (UniProt Q99759); settings: Compound concentration 1000.0 nM
Chain of Mitogen-activated protein kinase kinase kinase 3 (Homo sapiens) (Q99759 whole entry): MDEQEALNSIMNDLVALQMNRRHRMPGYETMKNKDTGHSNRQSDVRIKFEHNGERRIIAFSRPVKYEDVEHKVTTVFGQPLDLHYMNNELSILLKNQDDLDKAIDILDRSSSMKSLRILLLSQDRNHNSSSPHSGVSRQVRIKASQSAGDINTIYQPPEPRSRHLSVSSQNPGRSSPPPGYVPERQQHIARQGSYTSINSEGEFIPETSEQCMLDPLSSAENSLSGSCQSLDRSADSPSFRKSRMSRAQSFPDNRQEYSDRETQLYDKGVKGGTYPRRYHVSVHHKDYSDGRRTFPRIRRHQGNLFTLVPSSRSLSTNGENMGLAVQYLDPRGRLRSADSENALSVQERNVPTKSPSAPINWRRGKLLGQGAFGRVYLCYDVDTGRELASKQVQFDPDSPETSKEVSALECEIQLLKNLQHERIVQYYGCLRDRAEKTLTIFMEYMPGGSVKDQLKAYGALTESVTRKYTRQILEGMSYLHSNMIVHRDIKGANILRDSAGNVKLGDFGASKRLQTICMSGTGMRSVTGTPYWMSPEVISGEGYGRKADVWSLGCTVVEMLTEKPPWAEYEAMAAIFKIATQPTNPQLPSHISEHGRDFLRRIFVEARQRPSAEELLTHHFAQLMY

[25] = biological target: Mitogen-activated protein kinase kinase kinase kinase 2 (Homo sapiens) (UniProt Q12851); settings: Compound concentration 1000.0 nM
[26] = biological target: Dual specificity mitogen-activated protein kinase kinase 5 (Homo sapiens) (UniProt Q13163); settings: Compound concentration 1000.0 nM
Chain of Dual specificity mitogen-activated protein kinase kinase 5 (Homo sapiens) (Q13163 whole entry): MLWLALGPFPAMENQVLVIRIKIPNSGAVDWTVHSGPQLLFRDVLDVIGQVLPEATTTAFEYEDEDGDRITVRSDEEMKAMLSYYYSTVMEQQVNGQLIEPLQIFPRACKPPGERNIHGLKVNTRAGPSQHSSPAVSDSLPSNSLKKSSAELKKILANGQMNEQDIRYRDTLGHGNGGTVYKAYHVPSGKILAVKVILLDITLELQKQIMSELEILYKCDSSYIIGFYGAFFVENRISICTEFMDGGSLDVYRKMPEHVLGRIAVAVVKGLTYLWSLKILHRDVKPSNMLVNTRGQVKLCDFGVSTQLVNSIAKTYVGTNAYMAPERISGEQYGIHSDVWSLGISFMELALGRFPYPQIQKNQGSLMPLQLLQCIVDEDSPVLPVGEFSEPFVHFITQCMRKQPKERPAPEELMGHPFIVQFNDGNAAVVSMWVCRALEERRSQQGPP

[27] = biological target: Maternal embryonic leucine zipper kinase (Homo sapiens) (UniProt Q14680); settings: Compound concentration 1000.0 nM
[28] = biological target: MAP kinase-interacting serine/threonine-protein kinase 1 (Homo sapiens) (UniProt Q9BUB5); settings: Compound concentration 1000.0 nM
[29] = biological target: Mitogen-activated protein kinase kinase kinase 10 (Homo sapiens) (UniProt Q02779); settings: Compound concentration 1000.0 nM
[30] = biological target: Serine/threonine-protein kinase PAK 4 (Homo sapiens) (UniProt O96013); settings: Compound concentration 1000.0 nM
[31] = biological target: Cyclin-dependent kinase 2 homolog (Plasmodium falciparum (isolate 3D7)) (UniProt P61075); settings: Compound concentration 1000.0 nM
[32] = biological target: Cyclin-dependent kinase 15 (Homo sapiens) (UniProt Q96Q40); settings: Compound concentration 1000.0 nM
Chain of Cyclin-dependent kinase 15 (Homo sapiens) (Q96Q40 whole entry, canonical isoform): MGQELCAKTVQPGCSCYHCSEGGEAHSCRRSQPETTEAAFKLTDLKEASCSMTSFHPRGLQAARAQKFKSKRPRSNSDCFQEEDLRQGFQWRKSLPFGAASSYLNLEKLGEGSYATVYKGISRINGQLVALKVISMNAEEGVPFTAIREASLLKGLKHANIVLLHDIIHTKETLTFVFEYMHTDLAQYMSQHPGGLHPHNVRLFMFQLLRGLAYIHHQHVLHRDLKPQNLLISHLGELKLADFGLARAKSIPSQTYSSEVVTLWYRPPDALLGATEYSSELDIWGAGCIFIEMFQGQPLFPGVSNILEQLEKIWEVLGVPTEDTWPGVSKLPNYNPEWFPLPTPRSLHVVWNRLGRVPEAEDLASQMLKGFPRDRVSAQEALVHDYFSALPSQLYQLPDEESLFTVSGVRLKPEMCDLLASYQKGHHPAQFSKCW

[33] = biological target: Phosphorylase b kinase regulatory subunit alpha, liver isoform (Homo sapiens) (UniProt P46019); settings: Compound concentration 1000.0 nM
[34] = biological target: Phosphatidylinositol 4-kinase beta (Homo sapiens) (UniProt Q9UBF8); settings: Compound concentration 1000.0 nM
[35] = biological target: Serine/threonine-protein kinase pim-1 (Homo sapiens) (UniProt P11309); settings: Compound concentration 1000.0 nM
[36] = biological target: Serine/threonine-protein kinase SIK3 (Homo sapiens) (UniProt Q9Y2K2); settings: Compound concentration 1000.0 nM
[37] = test system: Proto-oncogene tyrosine-protein kinase receptor Ret (Homo sapiens), P07949 [V804M]; settings: Compound concentration 1000.0 nM
[38] = biological target: Ribosomal protein S6 kinase alpha-3 (Homo sapiens) (UniProt P51812); settings: Compound concentration 1000.0 nM
[39] = biological target: Serine/threonine-protein kinase Sgk3 (Homo sapiens) (UniProt Q96BR1); settings: Compound concentration 1000.0 nM
[40] = biological target: Proto-oncogene tyrosine-protein kinase Src (Homo sapiens) (UniProt P12931); settings: Compound concentration 1000.0 nM
[41] = biological target: Serine/threonine-protein kinase 35 (Homo sapiens) (UniProt Q8TDR2); settings: Compound concentration 1000.0 nM
[42] = biological target: TGF-beta receptor type-1 (Homo sapiens) (UniProt P36897); settings: Compound concentration 1000.0 nM
Chain of TGF-beta receptor type-1 (Homo sapiens) (P36897 whole entry): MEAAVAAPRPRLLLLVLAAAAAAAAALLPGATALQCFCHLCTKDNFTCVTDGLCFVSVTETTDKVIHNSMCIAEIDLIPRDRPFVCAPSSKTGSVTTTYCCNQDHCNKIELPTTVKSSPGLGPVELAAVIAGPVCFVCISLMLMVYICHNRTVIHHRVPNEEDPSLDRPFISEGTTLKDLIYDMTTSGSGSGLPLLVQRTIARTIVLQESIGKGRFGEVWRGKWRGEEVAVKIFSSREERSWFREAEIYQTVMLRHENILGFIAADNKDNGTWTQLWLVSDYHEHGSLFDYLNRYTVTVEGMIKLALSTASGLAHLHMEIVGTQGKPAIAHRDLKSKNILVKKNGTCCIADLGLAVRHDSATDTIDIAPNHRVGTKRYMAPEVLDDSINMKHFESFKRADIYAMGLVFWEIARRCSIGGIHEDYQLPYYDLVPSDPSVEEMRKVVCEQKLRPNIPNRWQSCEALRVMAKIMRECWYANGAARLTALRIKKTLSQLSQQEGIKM

[43] = biological target: Tyrosine-protein kinase receptor Tie-1 (Homo sapiens) (UniProt P35590); settings: Compound concentration 1000.0 nM
[44] = biological target: Transient receptor potential cation channel subfamily M member 6 (Homo sapiens) (UniProt Q9BX84); settings: Compound concentration 1000.0 nM
[45] = biological target: Mitogen-activated protein kinase kinase kinase 20 (Homo sapiens) (UniProt Q9NYL2); settings: Compound concentration 1000.0 nM

Chain of 5-hydroxytryptamine receptor 7 (P34969 whole entry): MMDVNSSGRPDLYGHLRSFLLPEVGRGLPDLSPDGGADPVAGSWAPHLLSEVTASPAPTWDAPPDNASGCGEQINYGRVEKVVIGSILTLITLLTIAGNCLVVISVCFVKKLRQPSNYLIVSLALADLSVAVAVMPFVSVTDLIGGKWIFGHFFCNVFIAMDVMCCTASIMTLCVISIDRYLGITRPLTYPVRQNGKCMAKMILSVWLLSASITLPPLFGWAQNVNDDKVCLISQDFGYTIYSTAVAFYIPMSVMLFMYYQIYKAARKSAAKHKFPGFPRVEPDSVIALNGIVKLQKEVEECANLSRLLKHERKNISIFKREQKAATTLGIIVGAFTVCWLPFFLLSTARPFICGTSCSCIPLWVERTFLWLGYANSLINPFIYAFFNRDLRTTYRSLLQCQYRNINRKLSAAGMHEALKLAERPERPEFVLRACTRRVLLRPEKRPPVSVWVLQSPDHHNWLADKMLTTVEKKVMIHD

Compound: CC(C)(C)OC(=O)N1CCCC1CNC1CCC(c2cc(F)ccc2F)(S(=O)(=O)c2ccc(Cl)cc2)CC1 (stereo unspecified) [GSI-NC]
- Ki ([1]; read-out: Ki): 0.826 µM
- Ki ([1]; read-out: pKi (converted)): 0.851 µM

Compound: O=S(=O)(NC1CCC(c2cc(F)ccc2F)(S(=O)(=O)c2ccc(Cl)cc2)CC1)C(F)(F)F (stereo unspecified) [MRK-560]
- residual activity [2]: 96%
- residual activity [3]: 84%
- residual activity [4]: 100%
- residual activity [5]: 87%
- residual activity [6]: 94%
- residual activity [7]: 92%
- residual activity [8]: 100%
- residual activity [9]: 100%
- residual activity [10]: 100%
- residual activity [11]: 86%
- residual activity [12]: 95%
- residual activity [13]: 96%
- residual activity [14]: 92%
- residual activity [15]: 100%
- residual activity [16]: 100%
- residual activity [17]: 100%
- residual activity [18]: 92%
- residual activity [19]: 100%
- residual activity [20]: 100%
- residual activity [21]: 100%
- residual activity [22]: 91%
- residual activity [23]: 100%
- residual activity [24]: 100%
- residual activity [25]: 100%
- residual activity [26]: 52%
- residual activity [27]: 69%
- residual activity [28]: 93%
- residual activity [29]: 100%
- residual activity [30]: 100%
- residual activity [31]: 100%
- residual activity [32]: 100%
- residual activity [33]: 91%
- residual activity [34]: 82%
- residual activity [35]: 100%
- residual activity [36]: 100%
- residual activity [37]: 100%
- residual activity [38]: 96%
- residual activity [39]: 89%
- residual activity [40]: 100%
- residual activity [41]: 100%
- residual activity [42]: 100%
- residual activity [43]: 100%
- residual activity [44]: 95%
- residual activity [45]: 92%
